Experiment: in vitro
Conditions: human, hela cells, % viability

Row | SMILES | viability at 28.5 h, 10 µM [%]
1 | Cc1csc(N2CCC(NC3COc4ccc(F)cc4C3)CC2)n1 (centres unmarked) [CBK304751] | 101
2 | CCc1cc(C(=O)NC(CCn2ccnc2)c2ccccc2)cc(=O)[nH]1 (centres unmarked) [CBK306679] | 114
3 | COc1cc(C(=O)N/C(=C\c2ccc(O)cc2)C(=O)O)cc(OC)c1OC [CBK262607] | 86.2
4 | Cc1ccccc1-c1ccccc1CC1(C(=O)N(C)C)CCN(C(=O)C2CCCCC2)CC1 [CBK285718] | 98.2
5 | CCOC(=O)c1c(NC(=O)CSc2nc3ccccc3s2)sc2c1CCC2 [CBK263220] | 93
6 | COc1ccc2c(c1)C(=O)CC1(CCN(C(=O)/C=C/c3ccc(C)cc3)CC1)O2 [CBK156438] | 98.3
7 | COc1ccc2c(c1)C(O)C(NCc1ccccc1)C2 (centres unmarked) [CBK015469C] | 104
8 | CNC(=O)c1cnc(SC)nc1NCCc1c[nH]c2ccccc12 [CBK093597] | 104
9 | Cc1nc(NC(=O)C2Cc3ccccc3S2)sc1-c1n[nH]c(=S)n1C (centres unmarked) [CBK295337] | 98
10 | CCn1c(CC2CCN(C(=O)CCCn3cnnn3)CC2)nn(C)c1=O [CBK306537] | 102
11 | COc1cccc(C(NC(=O)c2cc(CN3CCOCC3)c(C)o2)c2ccccc2)c1 (centres unmarked) [CBK286279] | 93.4
12 | CC(C)c1ccc(-n2ncc3c(=O)[nH]cnc32)cc1 [CBK288096] | 70.7
13 | O=C(CCN1CCCC12CCc1[nH]c3ccccc3c1C2)c1ccc(F)cc1 (centres unmarked) [CBK084593] | 92.6
14 | Cc1ccc(NS(=O)(=O)c2cc(C(=O)N3CCN(Cc4ccc5c(c4)OCO5)CC3)ccc2C)cc1 [CBK268521] | 102
15 | O=C(O)c1ccc(-n2nnnc2SCc2ccccc2)cc1 [CBK287161] | 93.6
16 | O=C(O)CNS(=O)(=O)c1ccc(Cl)c(Cl)c1 [CBK266981] | 86.2
17 | Cc1cccn2c(CN3CCC(O)CC3)c(C(=O)N3CCCCC3)nc12 [CBK307639] | 104
18 | O=C(CSc1nnc(-c2ccncc2)s1)NNC(=O)c1cccs1 [CBK269600] | 82.3
19 | COc1ccc(CCNC(=O)C(=O)Nc2ccc(C)c(C)c2)cc1 [CBK263222] | 91.1
20 | CC(C(=O)Nc1ccc(S(N)(=O)=O)cc1)N1CCCc2ccccc21 (centres unmarked) [CBK306108] | 116
21 | CC1(C)Cc2nc(N3CCOCC3)ncc2C(NC(=O)NC(C)(C)C)C1 (centres unmarked) [CBK306978] | 101
22 | Cn1c(=O)n(-c2cccc(Cl)c2)c(=O)n1C [CBK116498] | 82.2

Row | SMILES | viability at 28.5 h, 10 µM [%]
23 | N#CCCCN1CCCN(c2cc(OCC3COc4ccccc4O3)ncn2)CC1 (centres unmarked) [CBK083391T] | 85.8
24 | CNc1nc(NC(C#N)c2ccccc2)ncc1N (centres unmarked) [CBK174783] | 107
25 | O=C(O)CSCC(=O)Nc1ccc(Cl)cn1 [CBK057543] | 86.5
26 | C=CCn1c(CCCNC=O)nc2ccccc21 [CBK269375] | 94.2
27 | COc1cncc(-c2cncc(N3CCN(CCN(C)C)CC3)n2)c1 [CBK065393] | 120
28 | C#CCN1N=C(c2ccc(OC)cc2)Cn2c(cc3sccc32)C1=O [CBK284209] | 91.2
29 | CCOC(=O)Cn1[nH]c(CO)c(Cc2c(Cl)cccc2Cl)c1=O [CBK103580] | 92.2
30 | O=C(Nc1ccc(-c2ccc(NC(=O)c3ccncc3)cc2)cc1)c1ccncc1 [CBK262321] | 98.9
31 | O=S(=O)(NCCc1ccccc1)c1cccc2nsnc12 [CBK261128] | 103
32 | COc1cccc(Nc2nnc(-c3cc4cc(OC)ccc4oc3=O)s2)c1 [CBK264432] | 94.1
33 | O=C(c1ccc(F)cc1)N1CCC[C@@H]1Cn1c(=O)oc2ccccc21 [CBK284529] | 89.4
34 | COc1cc(/C(CS(C)(=O)=O)=N\O)cc(OC)c1OC [CBK022984] | 83.8
35 | Cc1nc(C)c(-c2csc(Nc3ccc(S(N)(=O)=O)cc3)n2)s1 [CBK263292B] | 95.8
36 | CN(C)CCNC(=O)c1cccc(-c2cnc3[nH]c(=O)n(C4CCCCC4)c3n2)c1 [CBK064191] | 103
37 | O=C(O)CC(NC=C1C(=O)CCCC1=O)C(=O)O (centres unmarked) [CBK261997] | 85.2
38 | O=C(CSc1nc2[nH]ncc2c(=O)n1-c1ccccc1)Nc1ccc(F)c(Cl)c1 [CBK266453] | 97.6
39 | O=C(NCCN1CCOCC1)C1CCN(C(=O)c2cccc(F)c2)CC1 [CBK304627] | 85.8
40 | CCOC(=O)CC(=O)COc1noc2nc(C)cc(C)c12 [CBK269595] | 98.2
41 | Cc1nn(-c2ccc(F)cc2)c(C)c1CNC(=O)CCC1CCCO1 (centres unmarked) [CBK281456] | 86.8
42 | C[C@@H](Cn1nc2c(cc1=O)CCCC2)NC(=O)c1ccccc1F [CBK284560] | 92.5
43 | CS(=O)(=O)N1CCCC(C(=O)Nc2nccs2)C1 (centres unmarked) [CBK287834] | 100
44 | Cc1csc2c(NC(C)C)ncnc12 [CBK017059] | 95.7

Source: article PMC12040169 (PLOS Biology, 2025)
